Square brackets hold non-standard residues; d marks the D form. Peptide text beside a SMILES is read from it. * marks the point of attachment. Dolaproine = CO[C@@H]([C@@H]1CCCN1)[C@@H](C)C(=O)O; Dil = CC[C@H](C)[C@H](NC)[C@@H](CC(=O)O)OC; X1 = C[C@@H](N*)[C@@H](O)c1ccccc1; NMeV = CN[C@H](C(=O)O)C(C)C
Tests used:
NCI-H1781 cells = assay: ADC cytotoxicity (CellTiter-Glo), low nectin-4 expression line; assay type: cell-based; settings: NCI H1781, 5 days, ADC Formula XI DAR 8
Method: NCI-H1781 cells, a low expression cell line, were seeded in white clear-bottom 96-well tissue culture plates in culture medium (RPMI 1640+1× GlutaMax+10% Heat Inactivated Fetal Bovine Serum+1 mM sodium pyruvate). Cells were incubated at 37° C. with 5% CO2 overnight. Next day, ADCs were added at final working concentration from 100 nM, 1:3 serially diluted in culture medium. Plates were covered with Breathe-Easy® sealing membrane and incubated at 37° C. with 5% CO2. Plates were read after 5 days treatment using CellTiter-Glo Luminescent Cell Viability Assay. 100 ul/well CellTiter-Glo reagent were incubated in plates at room temperature for 10 min. Luminescence was read in the SpectraMax M5e. RLUs (Relative Light Units) were obtained with SoftMax Pro 5.4. Percentage of cell killing was calculated against no treatment as 0%. Data was graphed and analyzed using GraphPad Prism version 9.5.1. IC50 was determined via log(inhibitor) vs. response-variable slope (four parameters) curve fitting.

[1] = system: HEKα cells (normal human epidermal keratinocytes); assay: Binding to normal human epidermal keratinocytes by flow cytometry; settings: ADC (Formula XI, DAR of 8); read-out: EC50 of cell surface binding to normal human epidermal keratinocytes
Method: To characterize binding of nectin-4 antibodies and ADCs of the present disclosure to normal human epidermal keratinocytes, HEKα cells were plated in 150×25 mm tissue culture dish (Corning Inc.) in complete culture medium (Dermal Cell Basal Medium+Keratinocytes Growth Kit, ATCC) at 1 million per well to achieve confluency within 24 hours. The differentiation process progressed for an additional 5-10 days. Following the induction of differentiation, cells were dissociated with 2 mg/mL Type XI Collagenase from Clostridium histolyticum (Sigma-Aldrich) at 37° C. Cells were counted and aliquoted to a V-bottom polypropylene 96-well plate (Thermo Scientific Nunc) at 10^5 cells/well. Antibodies and ADCs were added to cells starting at 300 nM, 1:4 serially diluted in assay buffer (1×DPBS containing 2% FBS, Gibco). Cells were incubated on a microplate shaker at 4° C., protected from light for 1 hour. After incubation, cells were washed twice with 200 uL/well of assay buffer and stained with Alexa Fluor 647-conjugated AffiniPure F(ab')2 Fragment Goat Anti-Human IgG (H+L) (Jackson ImmunoResearch) at 1:1,000 dilution. Following an hour incubation at 4° C., cells were washed twice with 200 uL/well of assay buffer and stained with Zombie Green fixable viability dye (BioLegend) at 1:2,000 dilution. Cells were incubated on a microplate shaker at 4° C. for 20 minutes. […]

[2] = system: T24-human nectin4 clone147 cells; assay: In vitro CDC assay with human serum complement; assay type: cell-based; settings: nectin-4 expressing T24 cell line
Method: T24 cell line was engineered to express high level of human Nectin4 and clonally selected. T24-human nectin4 clone147 cells were added in white clear-bottom 96-well tissue culture plates in assay medium (McCoy's 5A+1× GlutaMax+10% Heat Inactivated Fetal Bovine Serum) and incubated in the incubator at 37° C. with 5% CO2 overnight. Next day, 50 ul/well antibodies were added at final working concentration from 200 nM, 1:3 serially diluted in assay medium and incubated at 37° C. with 5% CO2 for one hour. Diluted human serum complement (1:3) was then added at 50 ul/well in assay medium and incubated at 37° C. with 5% CO2 for 3 hours. Plate was read using CellTiter-Glo Luminescent Cell Viability Assay. 100 ul/well CellTiter-Glo reagent were incubated in plates at room temperature for 10 min. Luminescence was read in the SpectraMax M5e. RLUs (Relative Light Units) were obtained with SoftMax Pro 5.4. Percentage of cell killing was calculated against no treatment. Data was graphed and analyzed using GraphPad Prism version 9.5.1.

[3] = system: T24 mScarlet clone 5 Nectin-4 negative cells; assay: Bystander killing of T24-mScarlet clone 5 cells co-cultured with T24-human nectin4 clone108 (imaging); assay type: cell-based; settings: T24-mScarlet clone5 : T24-human nectin4 clone108 9:1, 5 days, ADC Formula XI DAR 8; read-out: IC50 of bystander effect
Method: T24 cell line was engineered to express mScarlet and clonally selected to test in bystander assay. T24-mScarlet clone5 and T24-human nectin4 clone108 were mixed and seeded at a total of 1000 cells/well/100 ul with a ratio of 9:1 in culture medium (McCoy's 5A+1× GlutaMax+10% Heat Inactivated Fetal Bovine Serum+400 μg/ml G418) in flat clear bottom 96-well plates. T24 mScarlet clone 5 cells were negative for nectin-4 expression. Plates were incubated at 37° C. with 5% CO2 overnight. Next day, ADCs were added at final working concentration from 50 nM, 1:4 serially diluted in culture medium. Plates were covered with Breathe-Easy® sealing membrane, placed in BioSpa and scanned in Cytation5 every day for 5 days.
Images of T24-mScarlet cells were captured and analyzed by Cytation5 with Gen5 Image Prime 3.11. Percentage of T24-mScarlet cell killing was calculated by decreased Integrated Intensity (area×mean intensity), normalized to zero hour and no treatment. Data was graphed and analyzed using GraphPad Prism version 9.5.1. IC50 was determined via log(inhibitor) vs. response-variable slope (four parameters) curve fitting.

[4] = system: T24-human nectin-4 clone 108; assay: ADC cytotoxicity (CellTiter-Glo), high nectin-4 expression line; assay type: cell-based; settings: T24 Nectin-4 clone 108, 5 days, ADC Formula XI DAR 8
Method: Plates were read after 5 days treatment using CellTiter-Glo Luminescent Cell Viability Assay. 100 ul/well CellTiter-Glo reagent were incubated in plates at room temperature for 10 min. Luminescence was read in the SpectraMax M5e. RLUs (Relative Light Units) were obtained with SoftMax Pro 5.4. Percentage of cell killing was calculated against no treatment as 0%. Data was graphed and analyzed using GraphPad Prism version 9.5.1. IC50 was determined via log(inhibitor) vs. response-variable slope (four parameters) curve fitting.
T24 cell line was engineered to express human nectin-4 and clonally selected. T24-human nectin-4 clone 108, a high expression clonal cell line, was seeded in culture medium (McCoy's 5A+1× GlutaMax+10% Heat Inactivated Fetal Bovine Serum+400 μg/ml G418). ADCs were added at final working concentration from 200 nM, 1:4 serially diluted in culture medium for 5 days.

[5] = system: T24-human Nectin-4-eGFP clone 3 cells; assay: Internalization: degradation of nectin-4-eGFP signal by fluorescence imaging; assay type: cell-based; settings: ADC (Formula XI, DAR of 8), 24 h time course
Method: T24 cell line was engineered to express human Nectin-4-eGFP and clonally selected for high expression. […] human Nectin-4-eGFP clone 3 cells were plated at 12,000 cells per well, in black clear-bottom CellCarrier Ultra 384-well microplates (Perkin Elmer) in complete culture medium (McCoy's 5A, modified, +10% FBS+Glutamax+400 μg/mL G418+Pen/Strep). Plates were covered with AeraSeal™ Sealing Films and incubated overnight at 37° C., 5% CO2. Next day, antibodies and ADCs were added to cells, starting at 300 nM at 1:3 dilution. Plates were covered with AeraSeal™ and placed in incubator for imaging on PerkinElmer Opera Phenix Screening System over a 24 h time course. Data were processed and analyzed in Harmony and Microsoft Excel and graphed in GraphPad Prism.

[6] = system: UMUC3-Luc-GFP Nectin-4 negative cells; assay: Free payload cytotoxicity on UMUC3-Luc-GFP cells; assay type: cell-based; settings: 5 days
Method: (§1) UMUC3 cell line was engineered to express human Nectin4 and two clonal populations with different levels of expression were selected. In flat white clear-bottom 96-well plates, UMUC3-hNectin4 clone F7/UMUC3-Luc-GFP cells were mixed and seeded at a total of 1500 cells/well/100 ul with a ratio of 4:1 in assay medium (MEM+1× GlutaMax+10% Heat Inactivated Fetal Bovine Serum+1 mM sodium pyruvate). UMUC3-hNectin4 clone E3/UMUC3-Luc-GFP cells were mixed and seeded at a total of 2100 cells/well/100 ul with a ratio of 6:1 in assay medium. UMUC3-Luc-GFP cells were negative for nectin-4 expression. Plates were incubated at 37° C. with 5% CO2 overnight. Next day, ADCs were added at final working concentration from 100 nM, 1:3 serially diluted in assay medium. To assess sensitivity of cell line to free payload, free payloads were added at final working concentration from 200 nM, 1:3 serially diluted in assay medium. […] Plates were read after 5-days treatment using ONE-Glo™ Luciferase Assay System. […] Luminescence was read in the SpectraMax M5e. […] Percentage of UMUC3-Luc-GFP killing was calculated against no treatment as 0%. Data was graphed and analyzed using Graphpad Prism version 9.5.1. IC50 was determined via log(inhibitor) vs. response (three parameters) curve fitting for bystander activity and log(inhibitor) vs. response (four parameters) for free payload cytotoxicity.

[7] = system: UM-UC-3 Nectin4 clone F7 xenograft; assay: Tumor xenograft, high nectin-4 expression; assay type: in vivo, mice (nu/nu); settings: UMUC3 Nectin-4 clone F7 xenograft, single dose 2 mg/kg, day 40
Method: In order to test the efficacy of the nectin-4 ADCs of the present disclosure, which have effector null mutations in the Fc region, and to compare to the enfortumab antibody, which has wildtype Fc and in an ADC with the same payload background as the ones of this disclosure, two tumor xenograft models with either high or moderate nectin-4 expression were tested as described. Immune compromised female mice (nu/nu) between 5-8 weeks of age with weight 18-20 grams were implanted unilaterally on the right flank with UM-UC-3 Nectin4 clone F7 cells with high nectin-4 expression. […] The test articles were given at a single dose (2 mg/kg) formulated with 5% dextrose. Tumors were measured biweekly until Day 40.

MDA-MB-468 xenograft = assay: Tumor xenograft, moderate nectin-4 expression; assay type: in vivo, NSG mice; settings: MDAMB468 xenograft, single dose 2 mg/kg, day 71
Method: In a separate study, female NSG mice between 5-6 weeks of age were injected subcutaneously with MDA-MB-468 cells with moderate Nectin-4 expression. When tumors reached approximately 150-250 mm^3; animals were matched by tumor volume into treatment or control groups and dosing initiated (Day 0, n=8 per group). The test articles were given at a single dose (2 mg/kg) formulated with 5% Dextrose. Tumors were measured biweekly until Day 71.
In both models, a 2 mg/kg single dose treatment of either the nectin-4 ADCs (exemplified herein with each of Abs1-8 conjugated as in Formula XI, and with a DAR of 8) or benchmark enfortumab ADC (enfortumab conjugated with Formula XI, and with a DAR of 8) was used. Tumor growth was measured at day 40 for UMUC3 Nectin-4 clone F7 and day 71 for MDAMB468 xenografts.

[8] = system: UMUC3-Luc-GFP + UMUC3-hNectin4 clone E3; assay: Bystander killing of UMUC3-Luc-GFP cells co-cultured with UMUC3-hNectin4 clone E3 (ONE-Glo); assay type: cell-based, human; settings: UMUC3-Luc-GFP + UMUC3-hNectin4 clone E3, ratio 6:1, 5 days; read-out: IC50 of bystander effect
Method: as §1

[9] = system: T24-hNectin-4 clone 14 cells (MMAE-resistant); assay: ADC cytotoxicity in MMAE-resistant cells (CellTiter-Glo); assay type: cell-based, human; settings: T24-hNectin-4 clone 14, 5 days
Method: In T24 nectin-4 cells that are resistant to MMAE, two nectin-4 ADCs described herein and enfortumab vedotin were tested for activity. T24-hNectin-4 clone 14 cells were seeded at 500 per well in 100 ul culture medium, in white clear-bottom 96-well tissue culture plates and incubated at 37° C. with 5% CO2 overnight. The next day each ADC was serially diluted 1:4, with a starting concentration of 400 nM, in culture medium. One-hundred ul of each ADC dilution was added per well and the plates were covered with a Breathe-Easy® sealing membrane and incubated at 37° C. with 5% CO2. After 5 days of treatment, the plates were removed from the incubator, placed at room temperature for 15 minutes, and 100 ul medium per well was removed. One hundred ul of CellTiter-Glo reagent was added per well and the plates were incubated at room temperature for 10 minutes. RLUs (Relative Light Units) were obtained by SpectraMax M5e with SoftMax Pro 5.4. Percentage of cell killing was calculated against DMSO only (for free payloads) or no treatment (for ADCs) as 0%. Data was graphed and analyzed using Graphpad Prism version 9.5.1. IC50s were determined via log(inhibitor) vs. response-variable slope (four parameters) curve fitting.

[10] = system: UMUC3-Luc-GFP + UMUC3-hNectin4 clone F7; assay: Bystander killing of UMUC3-Luc-GFP cells co-cultured with UMUC3-hNectin4 clone F7 (ONE-Glo); assay type: cell-based, human
Method: as §1, with “overnight.” for “overnight. Next day, ADCs were added at final working concentration from 100 nM, 1:3 serially diluted in assay medium. To assess sensitivity of cell line to free payload, free payloads were added at final working concentration from 200 nM, 1:3 serially diluted in assay medium.”, “ONE-GloTM” for “ONE-Glo™”, “cytotoxicity. […] In experiments run as essentially described herein, the bystander effects of four nectin-4 ADCs described herein and enfortumab vedotin were evaluated using the UMUC3-hNectin-4 cloneF7/UMUC3-Luciferase-GFP cell pair. […]” for “cytotoxicity.”

Molecule: Enfortumab
- IC50 (NCI-H1781 cells): 0.0409 nM
- EC50 [1]: 0.03 nM
- CDC potential [2]: did not show CDC potential
- IC50 [3]: 0.0593 nM
- IC50 [4]: 0.0747 nM
- % activity (max GFP signal loss compared to enfortumab mAb (100%)) [5]: 119.9%
- EC50 ([5]; read-out: EC50 of nectin-4-eGFP signal loss): 2.55 nM

Molecule: CC[C@H](C)[C@@H]([C@@H](CC(=O)N1CCC[C@H]1[C@H](OC)[C@@H](C)C(=O)N[C@H](C)[C@@H](O)c1ccccc1)OC)N(C)C(=O)[C@@H](NC(=O)[C@@H](NC)C(C)C)C(C)C [MMAE] (H-[NMeV]V[Dil][Dolaproine]-X1)
- IC50 [6]: 0.38 nM

Molecule: Enfortumab ADC: benchmark: enfortumab conjugated with Formula XI, and with a DAR of 8 [reference compound]
- Mean tumor volume [7]: 812.22 mm^3
- Mean tumor volume (MDA-MB-468 xenograft): 272.28 mm^3

Molecule: Enfortumab vedotin [reference compound]
- IC50 [8]: 0.35 nM
- Activity against MMAE-resistant cells [9]: lost efficacy
- IC50 ([10]; UMUC3-Luc-GFP + UMUC3-hNectin4 clone F7, ratio 4:1, 5 days, read-out: IC50 of bystander effect): 4.3 nM
- Bystander effect (in words) ([10]; UMUC3-hNectin-4 cloneF7/UMUC3-Luciferase-GFP 4:1, 5 days): much less potent bystander effect

— US20250000991A1, “NECTIN-4 ANTIBODIES AND ANTIBODY-DRUG CONJUGATES” (Eli Lilly and Company, priority 2023, published 2025)
